Counter-ions that a name gives are not always drawn. A value given as a limit tells only on which side of the number the result lay.

T1 sequence (O00187 445-686 limits assumed): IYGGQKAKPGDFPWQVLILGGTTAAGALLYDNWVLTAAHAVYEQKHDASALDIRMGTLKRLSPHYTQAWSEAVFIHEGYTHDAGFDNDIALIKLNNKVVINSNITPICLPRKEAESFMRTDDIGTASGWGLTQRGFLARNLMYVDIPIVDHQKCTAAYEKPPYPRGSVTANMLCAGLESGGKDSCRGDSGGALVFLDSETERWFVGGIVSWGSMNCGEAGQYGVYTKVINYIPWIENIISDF
T1 sequence (O00187 298-444 partner limits assumed): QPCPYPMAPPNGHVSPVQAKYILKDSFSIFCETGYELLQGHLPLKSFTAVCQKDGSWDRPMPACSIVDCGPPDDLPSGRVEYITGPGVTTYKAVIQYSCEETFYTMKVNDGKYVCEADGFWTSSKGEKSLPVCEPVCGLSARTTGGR

The test addresses T1, MASP-2 (CCP1-CCP2-SP) (Homo sapiens, UniProt O00187).
T1 construct: 15 μL of Enzyme MASP-2 (CCP1-CCP2-SP) in Assay Buffer
Nature of the test: Enzymatic Assay for MASP-2. The format is biochemical. To be noted: fluorogenic substrate based on C2 cleavage site, room temperature, 20 mM HEPES pH 7.4. The method, boiled down:
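Fluorogenic substrate modelled on the C2 cleavage site, run at room temperature in 20 mM HEPES pH 7.4, 140 mM NaCl, 0.1% Tween 20; compounds were added from DMSO serial dilutions before enzyme and substrate. Reactions ran 20 min and were stopped with 0.1 M acetic acid before fluorescence was read. % activity was normalised to DMSO-only and no-enzyme controls; IC50 was taken as Ki, with tight- or slow-binding inhibitors handled separately.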
In the case of `CC(C)n1cc(-c2cnc(NCCc3ccccc3)c(=O)n2CC(=O)NCc2cc3cnccc3[nH]2)cn1` [Compound 103, N-((1H-Pyrrolo[3,2-c]pyridin-2-yl)methyl)-2-(6-(1-isopropyl-1H-pyrazol-4-yl)-2-oxo-3-(phenethylamino)pyrazin-1(2H)-yl)acetamide], the inhibition constant (Ki) (as a rule, the dissociation constant of the complex between target and ligand, obtained from inhibition or displacement) was less than 500 nM.

For `Cc1nc(N)ccc1CNC(=O)Cn1c(-c2ccnc(N)c2)cnc(NCCc2ccccc2)c1=O` [Compound 84, N-((6-Amino-2-Methylpyridin-3-yl)Methyl)-2-(6-(2-Aminopyridin-4-yl)-2-Oxo-3-(Phenethylamino)Pyrazin-1(2H)-yl)Acetamide], the Ki was less than 500 nM.

Take `O=C(Cn1c(-c2ccccc2)cnc(N2CCC(c3ccccc3)CC2)c1=O)NCc1cc2cnccc2[nH]1` [Compound 140, N-((1H-Pyrrolo[3,2-c]pyridin-2-yl)methyl)-2-(2-oxo-6-phenyl-3-(4-phenylpiperidin-l-yl)pyrazin-1(2H)-yl)acetamide]: the Ki was less than 500 nM.

For the compound `O=C(Cn1c(-c2ccccc2)cnc(NCC2(c3ccccc3F)COC2)c1=O)NCc1cc2cnccc2[nH]1` [Compound 62, N-((1H-Pyrrolo[3,2-c]pyridin-2-yl)methyl)-2-(3-(((3-(2-fluorophenyl)oxetan-3-yl)methyl)amino)-2-oxo-6-phenylpyrazin-1(2H)-yl)acetamide trifluoroacetate], the Ki is less than 500 nM.

With `CC(C)Nc1cnc(NCCc2ccccc2)c(=O)n1CC(=O)NCc1cc2cnccc2[nH]1` [Compound 160], the Ki was in the range of 2500 to 10000 nM.

Turning to `Cc1cc2[nH]c(CNC(=O)Cn3c(-c4ccccc4)cnc(NCCc4ccccc4)c3=O)cc2cn1` [Compound 67, N-((6-Methyl-1H-Pyrrolo[3,2-c]Pyridin-2-yl)Methyl)-2-(2-Oxo-3-(Phenethylamino)-6-Phenylpyrazin-1(2H)-yl)Acetamide Trifluoroacetate], the Ki was less than 500 nM.

In the case of `Cc1cc(Cl)cc(CNC(=O)Cn2c(=O)c(NCCc3ccccc3)cn(C)c2=O)c1O` [Compound 35, trifluoroacetate], the inhibition constant (Ki) lay within 2500 to 10000 nM.

For the compound `N#Cc1cccc(-c2cnc(NCCc3ccccc3)c(=O)n2CC(=O)NCc2ccc3nc(N)[nH]c3c2)c1` [Compound 14, N-((2-Amino-1H-benzo[d]imidazol-6-yl)methyl)-2-(6-(3-cyanopheny1)-2-oxo-3-(phenethylamino)pyrazin-1(2H)-yl)acetamide], the Ki is less than 500 nM.

The compound `Cc1ncc(NCCc2ccccc2)c(=O)n1CC(=O)NCc1ccc2nc(N)[nH]c2c1` [Compound 3, N-((2-Amino-1H-benzo[d]imidazol-6-yl)methyl)-2-(2-methyl-6-oxo-5-(phenethylamino)pyrimidin-1(6H)-yl)acetamide trifluoroacetate] came in with an inhibitory constant (Ki) of less than 500 nM.

In the case of `Cc1nc(N)ccc1CNC(=O)Cn1c(-c2ccccc2)c(Cl)nc(NC2COC2c2ccccc2)c1=O` (stereo not shown) [Compound 42], the inhibition constant (Ki) fell in the range of 500 to 2500 nM.

Regarding `O=C(Cn1c(-c2ccccc2)cnc(NCC(F)(F)c2ccccc2)c1=O)NCc1cc2cnccc2[nH]1` [Compound 128, N-((1H-Pyrrolo[3,2-c]pyridin-2-yl)methyl)-2-(3-((2,2-difluoro-2-phenylethyl)amino)-2-oxo-6-phenylpyrazin-1(2H)-yl)acetamide trifluoroacetate], the Ki is less than 500 nM.

Turning to `NC(=O)c1cccc(-c2cnc(NCCc3ccccc3)c(=O)n2CC(=O)NCc2ccc3nc(N)[nH]c3c2)c1` [Compound 15], the Ki was less than 500 nM.

The compound `CNc1nc(Cl)c(-c2ccccc2)n(CC(=O)NCc2ccc(N)nc2C)c1=O` [Compound 38] showed an inhibition constant (Ki) of 500 to 2500 nM.

`COc1ccc(CNc2ncc(-c3ccccc3)n(CC(=O)NCc3cc4cnccc4[nH]3)c2=O)cc1` [Compound 150, N-((1H-Pyrrolo[3,2-c]pyridin-2-yl)methyl)-2-(3-((4-methoxybenzyl)amino)-2-oxo-6-phenylpyrazin-1(2H)-yl)acetamide] had a Ki of less than 500 nM.

In the case of `O=C(Cn1c(-c2ccccc2)cnc(NCc2ccc(F)cc2)c1=O)NCc1cc2cnccc2[nH]1` [Compound 147, N-((1H-Pyrrolo[3,2-c]Pyridin-2-yl)Methyl)-2-(3-((4-Fluorobenzyl)Amino)-2-Oxo-6-Phenylpyrazin-1(2H)-yl)Acetamide], the Ki was less than 500 nM.

In turn, `Cc1nc(N)ccc1CNC(=O)Cn1c(Cc2ccccc2)cnc(NCCc2ccccc2)c1=O` [Compound 19, N-((6-amino-2-methylpyridin-3-yl)methyl)-2-(6-benzyl-2-oxo-3-(phenethylamino)pyrazin-1(2H)-yl)acetamide trifluoroacetate] showed a Ki of less than 500 nM.

In turn, `O=C(Cn1c(-c2ccc(C(F)(F)F)cc2)cnc(NCCc2ccccc2)c1=O)NCc1cc2cnccc2[nH]1` [Compound 21, N-((1H-Pyrrolo[3,2-c]Pyridin-2-yl)Methyl)-2-(2-Oxo-3-(Phenethylamino)-6-(4-(Trifluoromethyl)Phenyl)Pyrazin-1(2H)-yl)Acetamide, Trifluoroacetate] gave an inhibition constant (Ki) of less than 500 nM.

Compound `O=C(Cn1c(-c2ccccc2)cnc(NCc2cccc(Cl)c2)c1=O)NCc1cc2cnccc2[nH]1` [Compound 75, N-((1H-Pyrrolo[3,2-c]pyridin-2-yl)methyl)-2-(3-((3-chlorobenzyl)amino)-2-oxo-6-phenylpyrazin-1(2H)-yl)acetamide trifluoroacetate] came in with a Ki of less than 500 nM.

With `O=C(Cn1c(-c2ccccc2)cnc(NCc2cccc(F)c2)c1=O)NCc1cc2cnccc2[nH]1` [Compound 151, N-((1H-Pyrrolo[3,2-c]pyridin-2-yl)methyl)-2-(3-((3-fluorobenzyl)amino)-2-oxo-6-phenylpyrazin-1(2H)-yl)acetamide], the inhibitory constant (Ki) was less than 500 nM.

In turn, `C=C(C)c1cccc(-c2cnc(NCCc3ccccc3)c(=O)n2CC(=O)NCc2cc3cnccc3[nH]2)c1` [Compound 91, N-((1H-Pyrrolo[3,2-c]Pyridin-2-yl)Methyl)-2-(2-Oxo-3-(Phenethylamino)-6-(3-(Prop-1-en-2-yl)Phenyl)Pyrazin-1(2H)-yl)Acetamide] yielded an inhibitory constant (Ki) of less than 500 nM.

`O=C(Cn1c(-c2ccccc2F)cnc(NCCc2ccccc2)c1=O)NCc1cc2cnccc2[nH]1` [Compound 86, N-((1H-Pyrrolo[3,2-c]Pyridin-2-yl)Methyl)-2-(6-(2-Fluorophenyl)-2-Oxo-3-(Phenethylamino)Pyrazin-1(2H)-yl)Acetamide Trifluoroacetate] yielded a Ki of less than 500 nM.

As for `O=C(Cn1c(-c2ccccc2)cnc(N2CC[C@H](c3ccccc3)C2)c1=O)NCc1cc2cnccc2[nH]1` [Compound 143, (R)-N-((1H-Pyrrolo[3,2-c]pyridin-2-yl)methyl)-2-(2-oxo-6-phenyl-3-(3-phenylpyrrolidin-l-yl)pyrazin-1(2H)-yl)acetamide], the Ki was less than 500 nM.

For the compound `O=C(Cn1c(-c2ccccc2)cnc(NCC2(c3ccc(C(F)(F)F)cc3)CC2)c1=O)NCc1cc2cnccc2[nH]1` [Compound 60, N-((1H-Pyrrolo[3,2-c]pyridin-2-yl)methyl)-2-(2-oxo-6-phenyl-3-(((1-(4-(trifluoromethyl)phenyl)cyclopropyl)methyl)amino)pyrazin-1(2H)-yl)acetamide trifluoroacetate], the Ki was less than 500 nM.

As to `Cc1cccc(CCNc2ncc(-c3ccccc3)n(CC(=O)NCc3cc4cnccc4[nH]3)c2=O)c1` [Compound 137, N-((1H-Pyrrolo[3,2-c]pyridin-2-yl)methyl)-2-(3-((3-methylphenethyl)amino)-2-oxo-6-phenylpyrazin-1(2H)-yl)acetamide], the Ki was less than 500 nM.

In turn, `O=C(Cn1c(-c2ccccc2)cnc(NCC2(c3ccccc3)CCC2)c1=O)NCc1cc2cnccc2[nH]1` [Compound 56, N-((1H-Pyrrolo[3,2-c]pyridin-2-yl)methyl)-2-(2-oxo-6-phenyl-3-(((1-phenylcyclobutyl)methyl)amino)pyrazin-1(2H)-yl)acetamide trifluoroacetate] registered a Ki of less than 500 nM.

`COC(=O)Cc1cccc(-c2cnc(NCCc3ccccc3)c(=O)n2CC(=O)NCc2cc3cnccc3[nH]2)c1` [Compound 93, Methyl 2-(3-(1-(2(((1H-pyrrolo[3,2-c]pyridin-2-yl)methyl)amino)-2-oxoethyl)-6-oxo-5-(phenethylamino)-1,6-dihydropyrazin-2-yl)phenyl)acetate trifluoroacetate] came in with a Ki of less than 500 nM.

Regarding `CNc1ncc(-c2ccccc2)n(CC(=O)NCc2ccc(N)nc2C)c1=O` [Compound 45, N-((6-Amino-2-methylpyridin-3-yl)methyl)-2-(3-(methylamino)-2-oxo-6-phenylpyrazin-1(2H)-yl)acetamide], the inhibitory constant (Ki) was less than 500 nM.

For `Cc1nc(N)ccc1CNC(=O)Cn1c(C)ncc(NCCc2ccccc2)c1=O` [Compound 2, N-((6-Amino-2-Methylpyridin-3-yl)Methyl)-2-(2-Methyl-6-Oxo-5-(Phenethylamino)Pyrimidin-1(6H)-yl)Acetamide, Trifluoroacetate], the Ki is less than 500 nM.

Take `CCOCCCNc1ncc(-c2ccccc2)n(CC(=O)NCc2cc3cnccc3[nH]2)c1=O` [Compound 126, N-((1H-Pyrrolo[3,2-c]Pyridin-2-yl)Methyl)-2-(3-((3-Ethoxypropyl)Amino)-2-Oxo-6-Phenylpyrazin-1(2H)-yl)Acetamide Trifluoroacetate]: the Ki is less than 500 nM.

The compound `Cc1nc(N)ccc1CNC(=O)Cn1c(-c2ccccc2)cnc(N2CCOCC2)c1=O` [Compound 44, N-((6-Amino-2-methylpyridin-3-yl)methyl)-2-(3-morpholino-2-oxo-6-phenylpyrazin-1(2H)-yl)acetamide] came in with a Ki of less than 500 nM.

In the case of `COc1ccc(C2(CNc3ncc(-c4ccccc4)n(CC(=O)NCc4cc5cnccc5[nH]4)c3=O)CC2)cc1` [Compound 61, N-((1H-Pyrrolo[3,2-c]pyridin-2-yl)methyl)-2-(3-(((1-(4-methoxyphenyl)cyclopropyl)methyl)amino)-2-oxo-6-phenylpyrazin-1(2H)-yl)acetamide trifluoroacetate], the Ki was less than 500 nM.

For the origin of these results see patent US12110288B2, “MASP-2 inhibitors and methods of use” (Omeros Corporation, priority 2019, dated 2024).
